{"source": "patent US7863446B2", "about": "“Heterocycles” (Orchid Research Laboratories Limited, priority 2006, dated 2011)", "key": {"HCT-116": {"tested_on": "HCT-116", "assay": "Anti-cancer screen (MTT), HCT-116", "assay_type": "cell-based", "conditions": "Homo sapiens, HCT-116, 48 hours", "method": "(§1) Experimental drugs are screened for anti-cancer activity in three cell lines for their GI50, TG1 and LC50 values (using 5 concentrations for each compound). The cell lines are maintained in DMEM containing 10% fetal bovine serum. 96 well microtiter plates are inoculated with cells in […] for 24 hours at 37° C., 5% CO2, 95% air and 100% relative humidity. 5000 HCT116 cells/well, 5000 NCIH460 cells/well, 10000 U251 cells/well and 5000 MDAMB231 cells/well are plated. A separate plate with these cell lines is also inoculated to determine cell viability before the addition of the compounds (T0).\n(§2) Addition of Experimental Drugs\n(§3) Following 24-hour incubation, experimental drugs are added to the 96 well plates. Each plate contains one of the above cell lines and the following in triplicate: 5 different concentrations (0.01, 0.1, 1, 10 and 100 μM) of 4 different compounds, appropriate dilutions of a cytotoxic standard and control (untreated) wells. Compounds are dissolved in dimethylsulfoxide (DMSO) to make 20 mM stock solutions, on the day of drug addition and frozen at −20° C. Serial dilutions of these 20 mM stock solutions are made in complete growth medium such that 100 μL of these drug solutions in medium, of final concentrations equaling 0.01, 0.1, 1, 10 and 100 μM can be added to the cells in triplicate. Standard drugs whose anti-cancer activity has been well documented and which are regularly used are doxorubicin and SAHA.\n(§4) Cells are incubated with compounds for 48 hours followed by the addition of 10 μL 3-(4,5-Dimethyl-2-thiazolyl)-2,5-diphenyl-2H-tetrazolium (MTT) solution per well and a subsequent incubation at 37° C., 5% CO2, 95% air and 100% relative humidity, protected from light. After 4 hours, well contents are aspirated carefully followed by addition of 150 μL DMSO per well. Plates are agitated to ensure solution of the formazan crystals in DMSO and absorbance read at 570 nm.\n(§5) Calculation of GI50, TGI and LC50\n(§6) Percent growth is calculated for each compound's concentration relative to the control and zero measurement wells (T0; viability right before compound addition).\n(§7) If a test well's O.D. value is greater than the T0 measurement for that cell line % Growth=(test−zero)/(control−zero)×100\n(§8) If a test well's O.D. value is lower than the T0 measurement for that cell line, then % Growth=(test−zero)/zero×100 Plotting % growth versus experimental drug concentration, GI50 is the concentration required to decrease % growth by 50%; TGI is the concentration required to decrease % growth by 100% and LC50 is the concentration required to decrease % growth by 150%."}, "NCI-H460": {"tested_on": "NCI-H460", "assay": "Anti-cancer screen (MTT), NCI-H460", "assay_type": "cell-based", "conditions": "Homo sapiens, NCI-H460, 48 hours", "method": "as §1, §2, §3, §4, §5, §6, §7, §8"}, "TNF-α": {"tested_on": "TNF-α", "assay": "In vitro measurement of TNF-α in human PBMC (LPS stimulated)", "assay_type": "cell-based", "method": "In Vitro Measurement of Tumor Necrosis Factor Alpha (TNF-α)\nThis assay determines the effect of test compounds on the production of TNF α in human Peripheral Blood Mononuclear Cells (PBMC). Compounds were tested for their ability to inhibit the activity of TNF α in human PBMC. PBMC were isolated from blood (of healthy volunteers) using BD Vacutainer CPT™ (Cell preparation tube, BD Bio Science) and suspended in RPMI medium (Physiol. Res. 52: 593-598, 2003). The test compounds were pre-incubated with PBMC (0.5 million/incubation well) for 15 minutes at 37° C. and then stimulated with Lipopolysaccharide (Escherichia coli: B4; 1 μg/ml) for 18 hours at 37° C. in 5% CO2. The levels of TNF-α in the cell culture medium were estimated using enzyme-linked immunosorbent assay performed in a 96 well format as per the procedure of the manufacturer (Cayman Chemical, Ann Arbor, USA)."}, "COX-2": {"target": "T1, COX-2 (Homo sapiens, UniProt P35354)", "T1 construct": "Fresh blood was collected in tubes containing sodium heparin by vein puncture from healthy male volunteers; endogenous in cells; host or cells: human whole blood from healthy male volunteers, stimulated with LPS", "T1 sequence (P35354 18-604)": "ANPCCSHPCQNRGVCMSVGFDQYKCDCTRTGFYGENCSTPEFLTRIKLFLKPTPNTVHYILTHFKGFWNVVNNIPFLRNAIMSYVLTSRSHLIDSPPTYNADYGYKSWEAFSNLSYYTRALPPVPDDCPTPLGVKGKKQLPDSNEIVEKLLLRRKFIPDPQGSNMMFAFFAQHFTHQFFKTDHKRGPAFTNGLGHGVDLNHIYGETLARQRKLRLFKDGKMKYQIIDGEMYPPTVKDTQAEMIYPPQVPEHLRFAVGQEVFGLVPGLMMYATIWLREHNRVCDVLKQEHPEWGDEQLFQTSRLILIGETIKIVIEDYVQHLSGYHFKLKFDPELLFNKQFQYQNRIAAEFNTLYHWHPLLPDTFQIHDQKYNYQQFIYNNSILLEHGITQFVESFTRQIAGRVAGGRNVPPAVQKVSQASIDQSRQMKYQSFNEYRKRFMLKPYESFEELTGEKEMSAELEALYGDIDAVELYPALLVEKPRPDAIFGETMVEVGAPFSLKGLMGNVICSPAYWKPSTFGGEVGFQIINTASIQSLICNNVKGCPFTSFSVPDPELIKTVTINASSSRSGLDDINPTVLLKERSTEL", "assay": "Human whole blood assay (PGE-2 inhibition, COX-2)", "assay_type": "cell-based", "conditions": "LPS stimulated human whole blood, NA = No activity, read-out: % PGE-2 Inhibition in hWBA", "method": "In Vitro Evaluation of Cyclooxygenase-2 (Cox-2) Inhibition Activity\nThe COX-2 inhibition activities of the compounds illustrated in the examples were determined by the following method.\nHuman whole blood provides a protein and cell rich milieu appropriate for the study of the biochemical efficacy of anti-inflammatory compounds such as selective COX-2 inhibitors. […] This correlates with the observation that COX-2 inhibitors have no effect on prostaglandin E2 (PGE2) production in normal blood. These inhibitors were active only after incubation of human blood with lipopolysaccharide (LPS), which induces COX-2 production in the blood.\nFresh blood was collected in tubes containing sodium heparin by vein puncture from healthy male volunteers. The subjects should have no apparent inflammatory conditions and should have not taken NSAIDs for at least 7 days prior to blood collection. Blood was preincubated with aspirin in vitro (12 μg/ml, at time zero) to inactivate COX-1 for 6 hours. Then test compounds (at various concentrations) or vehicle were added to blood, the blood was stimulated with LPS B:4 (10 μg/ml) and incubated for another 18 hours at 37° C. water bath. After which the blood was centrifuged, plasma was separated and stored at −80° C. (J. Pharmacol. Exp. Ther, 271, 1705, 1994; Proc. Natl. Acad. Sci. USA, 96, 7563, 1999). The plasma was assayed for PGE2 using Cayman ELISA kit as per the procedure outlined by the manufacturer (Cayman Chemicals, Ann Arbor, USA)."}, "[1]": {"target": "purified recombinant COX-1 (Homo sapiens, UniProt P23219)", "sequence (P23219 24-599)": "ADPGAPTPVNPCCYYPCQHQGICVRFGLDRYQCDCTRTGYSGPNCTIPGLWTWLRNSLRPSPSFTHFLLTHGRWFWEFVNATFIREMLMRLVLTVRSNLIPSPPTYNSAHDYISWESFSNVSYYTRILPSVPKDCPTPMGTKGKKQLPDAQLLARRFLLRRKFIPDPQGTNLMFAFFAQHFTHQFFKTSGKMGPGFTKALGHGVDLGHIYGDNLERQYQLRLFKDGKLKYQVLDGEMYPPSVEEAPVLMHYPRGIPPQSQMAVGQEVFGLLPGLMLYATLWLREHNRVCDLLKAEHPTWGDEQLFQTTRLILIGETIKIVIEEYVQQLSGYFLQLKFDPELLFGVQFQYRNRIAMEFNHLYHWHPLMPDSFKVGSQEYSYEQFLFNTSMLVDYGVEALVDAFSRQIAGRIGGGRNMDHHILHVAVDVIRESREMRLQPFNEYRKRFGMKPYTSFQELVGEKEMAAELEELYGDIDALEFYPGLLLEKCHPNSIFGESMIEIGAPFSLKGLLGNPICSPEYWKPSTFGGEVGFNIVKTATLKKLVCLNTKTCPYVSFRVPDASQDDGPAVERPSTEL", "assay": "COX-1 enzyme based assay", "assay_type": "biochemical", "conditions": "NA = No activity, read-out: % Inhibition in rEnzyme Assay COX-1", "method": "(§9) COX-1 and COX-2 Enzyme Based Assay\n(§10) COX-1 and COX-2 enzyme based assays were carried out to check the inhibitory potential of the test compounds on the production of prostaglandin by purified recombinant COX-1/COX-2 enzyme (Proc. Nat. Acad. Sci. USA, 88, 2692-2696, 1991; J. Clin. Immunoassay 15, 116-120, 1992) In this assay, the potential of the test compound to inhibit the production of prostaglandin either by COX-1 or COX-2 from arachidonic acid (substrate) was measured. This was an enzyme based in-vitro assay to evaluate selective COX inhibition with good reproducibility.\n(§11) Arachidonic acid was converted to PGH2 (Intermediate product) by COX1/COX-2 in the presence or absence of the test compound. The reaction was carried out at 37° C. and after 2 minutes it was stopped by adding 1M HCl. Intermediate product PGH2 was converted to a stable prostanoid product PGF2αby SnCl2 reduction. The amount of PGF2α, produced in the reaction was inversely proportional to the COX inhibitory potential of the test compound. The prostanoid product was quantified via enzyme immunoassay (EIA) using a broadly specific antibody that binds to all the major forms of prostaglandin, using Cayman ELISA kit as per the procedure outlined by the manufacturer (Cayman Chemicals, Ann Arbor, USA)."}, "[2]": {"target": "T2, purified recombinant COX-2 (Homo sapiens, UniProt P35354)", "T2 sequence (P35354 18-604)": "T1 sequence (P35354 18-604)", "assay": "COX-2 enzyme based assay", "assay_type": "biochemical", "conditions": "10 μM; NA = No activity; read-out: % Inhibition in rEnzyme Assay COX-2", "method": "as §9, §10, §11"}}, "data": [{"smiles": "CSc1nn(-c2nc(C(F)(F)F)nc(-c3ccncc3)c2-c2ccc(F)cc2)c(N)c1C(=O)Nc1ccc(C)c(C)c1", "note": "[Example 143, 5-Amino-N-(4,5-dimethylphenyl)-1-[5-(4-fluorophenyl)-6-pyridin-4-yl-2-(trifluoromethyl)pyrimidin-4-yl]-3-(methylthio)-1H-pyrazole-4-carboxamide]", "values": [{"measurement": "GI50", "setting": "HCT-116", "result": 20, "unit": "µM"}, {"measurement": "GI50", "setting": "NCI-H460", "result": 0.1, "unit": "µM"}]}, {"smiles": "CS(=O)(=O)c1ccc(-c2nc(C(F)(F)F)nc(Cl)c2-c2ccc(S(=O)(=O)Cl)cc2)cc1", "note": "[Example 3, 4-{4-Chloro-6-[4-(methylsulfonyl)phenyl]-2-(trifluoromethyl)pyrimidin-5-yl}benzenesulfonyl chloride]", "values": [{"measurement": "melting point", "result": "207 to 210", "unit": "°C"}]}, {"smiles": "O=C(NNc1nc(C(F)(F)F)nc(-c2ccncc2)c1-c1ccc(F)cc1)C(F)(F)F", "note": "[Example 14, 2,2,2-Trifluoro-N′-[5-(4-fluorophenyl)-6-pyridin-4-yl-2-(trifluoromethyl)pyrimidin-4-yl]acetohydrazide]", "values": [{"measurement": "melting point", "result": "240 to 242", "unit": "°C"}, {"measurement": "inhibition at 1 µM", "setting": "TNF-α; 1 μM, NA = No activity, read-out: TNF-α Inhibition (%) at Conc. (1 μM)", "result": 25.5, "unit": "%"}, {"measurement": "inhibition at 10 µM", "setting": "TNF-α; 10 μM, read-out: TNF-α Inhibition (%) at Conc. (10 μM)", "result": 67.5, "unit": "%"}]}, {"smiles": "O=C(c1ccc([N+](=O)[O-])o1)N1CCN(c2nc(C(F)(F)F)nc(-c3ccncc3)c2-c2ccc(F)cc2)CC1", "note": "[Example 44, 5-[4-Fluorophenyl]-4-[4-(5-nitro-2-furoyl)piperazin-1-yl]-6-pyridin-4-yl-2-(trifluoromethyl)pyrimidine]", "values": [{"measurement": "GI50", "setting": "HCT-116", "result": 26, "unit": "µM"}, {"measurement": "GI50", "setting": "NCI-H460", "result": 4.5, "unit": "µM"}]}, {"smiles": "NS(=O)(=O)c1ccc(-c2nc(C(F)(F)F)nc(N3CCN(C(=O)c4ccc([N+](=O)[O-])o4)CC3)c2-c2ccc(F)cc2)cc1", "note": "[Example 40, 4-{5-[4-Fluorophenyl]-4-[4-(5-nitro-2-furoyl)piperazin-1-yl]-2-(trifluoromethyl)pyrimidin-6-yl}benzenesulfonamide]", "values": [{"measurement": "GI50", "setting": "HCT-116", "result": 3.5, "unit": "µM"}, {"measurement": "GI50", "setting": "NCI-H460", "result": 3.8, "unit": "µM"}]}, {"smiles": "Cc1ccc(S(=O)(=O)Oc2nc(C(F)(F)F)nc(-c3ccc(S(C)(=O)=O)cc3)c2-c2ccccc2)cc1", "note": "[Example 22, 6-[4-(Methylsulfonyl)phenyl]-5-phenyl-2-(trifluoromethyl)pyrimidin-4-yl-4-methylbenzenesulfonate]", "values": [{"measurement": "inhibition at 0.25 µM", "setting": "COX-2; 0.25 μM", "result": 15.6, "unit": "%"}, {"measurement": "inhibition at 1 µM", "setting": "COX-2; 1 μM", "result": 20.4, "unit": "%"}, {"measurement": "inhibition at 10 µM", "setting": "COX-2; 10 μM", "result": 36.4, "unit": "%"}]}, {"smiles": "CC(=O)NS(=O)(=O)c1ccc(-c2c(Cl)nc(C(F)(F)F)nc2-c2ccc(S(C)(=O)=O)cc2)cc1", "note": "[Example 17, N-[(4-{4-Chloro-6-[4-(methylsulfonyl)phenyl]-2-(trifluoromethyl)pyrimidin-5-yl}phenyl)sulfonyl]acetamide]", "values": [{"measurement": "melting point", "result": "230 to 235", "unit": "°C"}]}, {"smiles": "NS(=O)(=O)c1ccc(-c2c(-c3ccc(F)cc3)nc(C(F)(F)F)nc2N2CCN(C(=O)c3ccc([N+](=O)[O-])o3)CC2)cc1", "note": "[Example 41, 4-{6-[4-Fluorophenyl]-4-[4-(5-nitro-2-furoyl)piperazin-1-yl]-2-(trifluoromethyl)pyrimidin-5-yl}benzenesulfonamide]", "values": [{"measurement": "GI50", "setting": "HCT-116", "result": 7, "unit": "µM"}, {"measurement": "GI50", "setting": "NCI-H460", "result": 4, "unit": "µM"}]}, {"smiles": "NS(=O)(=O)c1cccc(-c2c(-c3ccccc3)nc(C(F)(F)F)nc2N2CCNCC2)c1", "note": "[Example 51, 3-[4-Phenyl-6-piperazin-1-yl-2-(trifluoromethyl)pyrimidin-5-yl]benzenesulfonamide]", "values": [{"measurement": "GI50", "setting": "HCT-116", "result": 30, "unit": "µM"}, {"measurement": "inhibition at 1 µM", "setting": "[1]; 1 μM", "result": 8.27, "unit": "%"}, {"measurement": "inhibition at 10 µM", "setting": "[1]; 10 μM", "result": 7.1, "unit": "%"}, {"measurement": "GI50", "setting": "NCI-H460", "result": 4, "unit": "µM"}, {"measurement": "inhibition at 10 µM", "setting": "[2]", "result": 12.3, "unit": "%"}]}, {"smiles": "NS(=O)(=O)c1cccc(-c2c(-c3ccc(F)cc3)nc(C(F)(F)F)nc2N2CCN(c3cccc(C(F)(F)F)c3)CC2)c1", "note": "[Example 73, 5-(3-Aminosulfonylphenyl)-4-(4-fluorophenyl)-2-(trifluoromethyl)-6-{4-[3-(trifluoromethyl)phenyl]piperazin-1-yl}pyrimidine]", "values": [{"measurement": "GI50", "setting": "HCT-116", "result": 9.2, "unit": "µM"}, {"measurement": "GI50", "setting": "NCI-H460", "result": 9, "unit": "µM"}]}, {"smiles": "FC(F)(F)c1nc(-c2ccccc2)c(-c2ccccc2)c(N2CCN(c3ccccn3)CC2)n1", "note": "[Example 48, 4,5-Diphenyl-6-(4-pyridin-2-yl-piperazin-1-yl)-2-(trifluoromethyl)pyrimidine]", "values": [{"measurement": "melting point", "result": "165 to 167", "unit": "°C"}]}]}
